The values that follow come from patent publication US7091207B2, “Method of treating myocardial infarction with PDE-5 inhibitors” (Virginia Commonwealth University, priority 2002, dated 2006).

The subject of this assay is mouse heart, global I-R injury. Kind of assay: Isolated perfused mouse heart (Langendorff), 20 min global ischemia and 30 min reperfusion after in vivo treatment. As for the experimental part: Adult male outbred ICR mice were supplied by Harlan Inc (Indianapolis, Ind.). Viagra pills (Pfizer Inc) were ground into powder and dissolved in saline. The drug solution was filtered (0.45-μm pore size) before intraperitoneal injection. 1400W, an iNOS inhibitor, was obtained from Alexis. We used an isolated perfused mouse heart model subjected to 20 minutes of global ischemia and 30 minutes of reperfusion (Langendorff mode). Myocardial I-R injury was assessed by measuring infarct size, contractile function, and coronary flow as described previously (Xi, 1999). Twenty-eight mice were randomized into the following 4 groups: (n=6 to 9 per group): (1) saline (0.15 mL IP), (2) sildenafil (0.7 mg/kg IP, equivalent to 50 mg Viagra pill used for patients with erectile dysfunction, given 24 hours before I-R), (3) sildenafil+1400W (10 mg/kg IP, 14 given 30 minutes before I-R), and (4) saline+1400W. Measurement of NOS Isoforms Mice were treated with sildenafil (0.7 mg/kg IP), and their hearts were removed at 15, 30, and 45 minutes and 1, 2, 3, 4, and 24 hours after injection (n=3 per group). Three nontreated hearts were used as controls. Tissue samples were ground under liquid nitrogen and homogenized with TRI Reagent (Molecular Research Center) for extracting total RNA, which was reverse-transcribed into cDNA at 50° C. for 30 minutes using a OneStep reverse transcription (RT)-polymerase chain reaction (PCR) kit from Qiagen. The oligonucleotide primers were synthesized on the basis of published sequences for murine iNOS, eNOS, and GAPDH15 (Integrated DNA Technology). The RT-PCR products were electrophoresed on 1.5% Trisacetate-EDTA agarose gel. The target bands were identified on the basis of their specific size using DNA standards. iNOS and eNOS proteins were measured by Western blots as described previously. 13 In brief, triplicate heart samples were collected 24 hours after saline or sildenafil injection and homogenized in ice-cold RIPA buffer (Upstate Biotechnology). The homogenate was centrifuged at 10,000 g for 10 minutes at 4° C., and supernatant was recovered as the total cellular protein. Total protein (60 μg) from each sample was separated by SDS-PAGE on 10% acrylamide gels, transferred to a polyvinylidine difluoride membrane, and then blocked with 5% nonfat dry milk in Tris-buffered saline. The membrane was subsequently incubated with a rabbit polyclonal antibody (dilution 1:500, Santa Cruz) reacting specifically to iNOS, eNOS, or actin. The secondary antibody was a horseradish peroxidase-conjugated anti-rabbit IgG (1:1000 dilution, Amersham). The membranes were developed using enhanced chemiluminescence and exposed to x-ray film. The mRNA and protein expression were quantified by scanning each of the RT-PCR or Western blot band using a densitometer (Bioquant 98). […]

The mark [1] stands for this setting: 0.7 mg/kg IP 24 hours before I-R.

Molecules are shown by their SMILES.

On to `CCCc1nn(C)c2c(=O)[nH]c(-c3cc(S(=O)(=O)N4CCN(C)CC4)ccc3OCC)nc12` [sildenafil], for which, under setting [1], the “preischemic or postischemic coronary flow” value is on record as “did not alter” and the “ventricular contractile function (stunning)” value is “not associated with compromised ventricular contractile function”. Further, where the note is “sildenafil 0.7 mg/kg IP 24 hours before I-R”, the infarct size was 6.9±1.2%.
